Data on 24 compounds can be found in patent US9394282B2, “Pyrazole carboxamides as Janus kinase inhibitors” (Merck Sharp & Dohme Corp., priority 2011, dated 2016).

pIC50: −log10 of the molar value. A value given as a limit tells only on which side of the number the result lay.

For orientation: pIC50 means the IC50 on a negative log10 scale, so that one unit is a factor of ten.

One assay has as its target JAK1 (Homo sapiens (Human), UniProt P23458). The assay is described as follows: Jak biochemical HTRF assay, JAK1. The settings on record: recombinant purified GST-tagged catalytic domain; HTRF format; [ATP] 31.8 μM. The text has this:
(§1) Jak Biochemical HTRF Assay Protocol
(§2) Subsequent reagent additions employed an Agilent Bravo.
For orientation: TR-FRET usually uses a lanthanide donor and a delayed reading to cut background.

The next assay concerns the target JAK2 (Homo sapiens (Human), UniProt O60674). The assay is described as follows: Jak biochemical HTRF assay, JAK2. The settings on record: recombinant purified GST-tagged catalytic domain; HTRF format; [ATP] 8.5 μM.
Description: as §1, §2

Sequence of JAK2 (O60674 849-1124): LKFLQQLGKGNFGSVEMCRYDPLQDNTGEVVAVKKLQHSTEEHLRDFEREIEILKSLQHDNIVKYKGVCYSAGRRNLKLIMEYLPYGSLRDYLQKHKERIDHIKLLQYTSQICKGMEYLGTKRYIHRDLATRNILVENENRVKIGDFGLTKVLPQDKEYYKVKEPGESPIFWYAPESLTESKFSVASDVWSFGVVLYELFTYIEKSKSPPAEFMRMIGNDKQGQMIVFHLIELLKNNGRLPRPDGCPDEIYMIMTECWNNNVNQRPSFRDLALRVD
Sequence of JAK1 (P23458 875-1153): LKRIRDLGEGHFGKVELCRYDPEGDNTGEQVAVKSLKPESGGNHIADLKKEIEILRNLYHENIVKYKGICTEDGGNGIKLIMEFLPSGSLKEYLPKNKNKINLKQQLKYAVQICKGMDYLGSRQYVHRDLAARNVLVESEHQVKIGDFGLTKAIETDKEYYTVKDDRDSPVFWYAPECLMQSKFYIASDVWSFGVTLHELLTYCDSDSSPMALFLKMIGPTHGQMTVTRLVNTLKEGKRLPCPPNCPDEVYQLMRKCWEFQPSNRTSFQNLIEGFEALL

For `CC(OC(=O)N1CC[C@@H](n2cc(C(N)=O)c(Nc3ccc(F)cc3)n2)[C@H](C#N)C1)C1CC1` (mixture of isomers) [Example 5-35, 1-cyclopropylethyl (3R,4R and 3S,4S)-4-{4-carbamoyl-3-[(4-fluorophenyl)amino]-1H-pyrazol-1-yl}-3-cyanopiperidine-1-carboxylate], the pIC50 was 7.72 on JAK1 and 6.33 on JAK2.
The matching figures for `N#C[C@@H]1CN(C(=O)OCCc2ccccc2)CC[C@H]1n1cc(C(N)=O)c(Nc2ccc(F)cc2)n1` (racemic) [Example 5-36, 2-phenylethyl (3R,4R and 3S,4S)-4-{4-carbamoyl-3-[(4-fluorophenyl)amino]-1H-pyrazol-1-yl}-3-cyanopiperidine-1-carboxylate]: 7.07 and 6.08.
On the same counts, the results for `N#C[C@@H]1CN(C(=O)OC2Cc3ccccc3C2)CC[C@H]1n1cc(C(N)=O)c(Nc2ccc(F)cc2)n1` (racemic) [Example 5-37, 2,3-dihydro-1H-inden-2-yl (3R,4R and 3S,4S)-4-{4-carbamoyl-3-[(4-fluorophenyl)amino]-1H-pyrazol-1-yl}-3-cyanopiperidine-1-carboxylate] are 7.27 and < 5.83.
On the same counts, the results for `N#C[C@@H]1CN(C(=O)OC2Cc3ccccc3C2)CC[C@@H]1n1cc(C(N)=O)c(Nc2ccc(F)cc2)n1` (racemic) [Example 5-42, 2,3-dihydro-1H-inden-2-yl (3R,4S and 3S,4R)-4-{4-carbamoyl-3-[(4-fluorophenyl)amino]-1H-pyrazol-1-yl}-3-cyanopiperidine-1-carboxylate] are 6.19 and < 5.83.
For the compound `CC(OC(=O)N1CC[C@H](n2cc(C(N)=O)c(Nc3ccc(F)cc3)n2)[C@H](C#N)C1)C(F)(F)F` (mixture of isomers) [Example 5-43, 2,2,2-trifluoro-1-methylethyl (3R,4S and 3S,4R)-4-{4-carbamoyl-3-[(4-fluorophenyl)amino]-1H-pyrazol-1-yl}-3-cyanopiperidine-1-carboxylate], the negative logarithm of the IC50 (pIC50) at JAK1 is 6.73; at JAK2, < 5.83.
On the same counts, the results for `N#C[C@@H]1CN(C(=O)OC(CF)CF)CC[C@@H]1n1cc(C(N)=O)c(Nc2ccc(F)cc2)n1` (racemic) [Example 5-47, 2-fluoro-1-(fluoromethyl)ethyl (3R,4S and 3S,4R)-4-{4-carbamoyl-3-[(4-fluorophenyl)amino]-1H-pyrazol-1-yl}-3-cyanopiperidine-1-carboxylate] are 6.92 and 5.87.
The matching figures for `N#C[C@@H]1CN(C(=O)OCCc2ccccc2)CC[C@@H]1n1cc(C(N)=O)c(Nc2ccc(F)cc2)n1` (racemic) [Example 5-48, 2-phenylethyl (3R,4S and 3S,4R)-4-{4-carbamoyl-3-[(4-fluorophenyl)amino]-1H-pyrazol-1-yl}-3-cyanopiperidine-1-carboxylate]: 6.39 and < 5.83.
On the same counts, the results for `COCCOC(=O)N1CC[C@H](n2cc(C(N)=O)c(Nc3ccc(F)cc3)n2)[C@H](C#N)C1` (racemic) [Example 5-54, 2-methoxyethyl (3R,4S and 3S,4R)-4-{4-carbamoyl-3-[(4-fluorophenyl)amino]-1H-pyrazol-1-yl}-3-cyanopiperidine-1-carboxylate] are 6.28 and < 5.83.
Turning to `N#C[C@@H]1CN(C(=O)OCCCc2ccccc2)CC[C@@H]1n1cc(C(N)=O)c(Nc2ccc(F)cc2)n1` (racemic) [Example 5-55, 3-phenylpropyl (3R,4S and 3S,4R)-4-{4-carbamoyl-3-[(4-fluorophenyl)amino]-1H-pyrazol-1-yl}-3-cyanopiperidine-1-carboxylate], the pIC50 on JAK1 was 6.46; at JAK2 it was < 5.83.
On the same counts, the results for `N#C[C@@H]1CN(C(=O)OC2COC2)CC[C@@H]1n1cc(C(N)=O)c(Nc2ccc(F)cc2)n1` (racemic) [Example 5-57, oxetan-3-yl (3R,4S and 3S,4R)-4-{4-carbamoyl-3-[(4-fluorophenyl)amino]-1H-pyrazol-1-yl}-3-cyanopiperidine-1-carboxylate] are 6.53 and 5.95.
The matching figures for `N#C[C@@H]1CN(C(=O)OCCF)CC[C@@H]1n1cc(C(N)=O)c(Nc2ccc(F)cc2)n1` (racemic) [Example 5-58, 2-fluoroethyl (3R,4S and 3S,4R)-4-{4-carbamoyl-3-[(4-fluorophenyl)amino]-1H-pyrazol-1-yl}-3-cyanopiperidine-1-carboxylate]: 6.99 and 5.95.
On the same counts, the results for `N#C[C@@H]1CN(C(=O)OCC(F)(F)CO)CC[C@@H]1n1cc(C(N)=O)c(Nc2ccc(F)cc2)n1` (racemic) [Example 5-67, 2,2-difluoro-3-hydroxypropyl (3R,4S and 3S,4R)-4-{4-carbamoyl-3-[(4-fluorophenyl)amino]-1H-pyrazol-1-yl}-3-cyanopiperidine-1-carboxylate] are 7.16 and 5.92.
Regarding `CC(OC(=O)N1CC[C@H](n2cc(C(N)=O)c(Nc3ccc(F)cc3)n2)[C@H](C#N)C1)C1CC1` (mixture of isomers) [Example 5-68, 1-cyclopropylethyl (3R,4S and 3S,4R)-4-{4-carbamoyl-3-[(4-fluorophenyl)amino]-1H-pyrazol-1-yl}-3-cyanopiperidine-1-carboxylate], the pIC50 on JAK1 is 6.36; on JAK2, < 5.83.
On the same counts, the results for `CC(OC(=O)N1CC[C@@H](C#N)C(n2cc(C(N)=O)c(Nc3ccc(F)cc3)n2)C1)C(F)(F)F` (mixture of isomers) [Example 5-70, 2,2,2-trifluoro-1-methylethyl (3S,4R and 3R,4S)-3-{4-carbamoyl-3-[(4-fluorophenyl)amino]-1H-pyrazol-1-yl}-4-cyanopiperidine-1-carboxylate] are 8.10 and 6.87.
The matching figures for `N#C[C@@H]1CCN(C(=O)OC(CF)CF)CC1n1cc(C(N)=O)c(Nc2ccc(F)cc2)n1` (mixture of isomers) [Example 5-71, 2-fluoro-1-(fluoromethyl)ethyl (3S,4R and 3R,4S)-3-{4-carbamoyl-3-[(4-fluorophenyl)amino]-1H-pyrazol-1-yl}-4-cyanopiperidine-1-carboxylate]: 8.40 and 7.36.
The matching figures for `CC1(COC(=O)N2CC[C@@H](C#N)C(n3cc(C(N)=O)c(Nc4ccc(F)cc4)n3)C2)CC1` (mixture of isomers) [Example 5-72, (1-methylcyclopropyl)methyl (3S,4R and 3R,4S)-3-{4-carbamoyl-3-[(4-fluorophenyl)amino]-1H-pyrazol-1-yl}-4-cyanopiperidine-1-carboxylate]: 8.30 and 7.16.
Take `CC(OC(=O)N1CC[C@@H](C#N)C(n2cc(C(N)=O)c(Nc3ccc(F)cc3)n2)C1)C1CC1` (mixture of isomers) [Example 5-73, 1-cyclopropylethyl (3S,4R and 3R,4S)-3-{4-carbamoyl-3-[(4-fluorophenyl)amino]-1H-pyrazol-1-yl}-4-cyanopiperidine-1-carboxylate]: the pIC50 is 8.22 at JAK1 and 7.11 at JAK2.
On the same counts, the results for `N#C[C@@H]1CCN(C(=O)OCC(F)(F)CO)CC1n1cc(C(N)=O)c(Nc2ccc(F)cc2)n1` (mixture of isomers) [Example 5-74, 2,2-difluoro-3-hydroxypropyl (3S,4R and 3R,4S)-3-{4-carbamoyl-3-[(4-fluorophenyl)amino]-1H-pyrazol-1-yl}-4-cyanopiperidine-1-carboxylate] are 9.00 and 7.85.
On the same counts, the results for `CN(C)CC(C)(C)COC(=O)N1CC[C@@H](C#N)C(n2cc(C(N)=O)c(Nc3ccc(F)cc3)n2)C1` (mixture of isomers) [Example 5-75, 3-(dimethylamino)-2,2-dimethylpropyl (3S,4R and 3R,4S)-3-{4-carbamoyl-3-[(4-fluorophenyl)amino]-1H-pyrazol-1-yl}-4-cyanopiperidine-1-carboxylate] are 7.80 and 6.35.
On the same counts, the results for `CCOC(=O)N1CC[C@@H](C#N)C(n2cc(C(N)=O)c(Nc3ccc(F)cc3)n2)C1` (mixture of isomers) [Example 5-76, ethyl (3S,4R and 3R,4S)-3-{4-carbamoyl-3-[(4-fluorophenyl)ainino]-1H-pyrazol-1-yl}-4-cyanopiperidine-1-carboxylate] are 8.30 and 7.21.
For the compound `CC(C)COC(=O)N1CC[C@@H](C#N)C(n2cc(C(N)=O)c(Nc3ccc(F)cc3)n2)C1` (mixture of isomers) [Example 5-77, 2-methylpropyl (3S,4R and 3R,4S)-3-{4-carbamoyl-3-[(4-fluorophenyl)amino]-1H-pyrazol-1-yl}-4-cyanopiperidine-1-carboxylate], the pIC50 at JAK1 was 8.40; at JAK2, 7.12.
The matching figures for `CC(C)(C)COC(=O)N1CC[C@@H](C#N)C(n2cc(C(N)=O)c(Nc3ccc(F)cc3)n2)C1` (mixture of isomers) [Example 5-80, 2,2-dimethylpropyl (3S,4R and 3R,4S)-3-{4-carbamoyl-3-[(4-fluorophenyl)amino]-1H-pyrazol-1-yl}-4-cyanopiperidine-1-carboxylate]: 8.22 and 6.84.
For the compound `N#C[C@@H]1CCN(C(=O)OCc2ccccc2)CC1n1cc(C(N)=O)c(Nc2ccc(F)cc2)n1` (mixture of isomers) [Example 5-82, benzyl (3S,4R and 3R,4S)-3-{4-carbamoyl-3-[(4-fluorophenyl)amino]-1H-pyrazol-1-yl}-4-cyanopiperidine-1-carboxylate], the pIC50 at JAK1 is 8.70; at JAK2, 7.28.
On the same counts, the results for `CCOC(=O)COC(=O)N1CC[C@@H](C#N)C(n2cc(C(N)=O)c(Nc3ccc(F)cc3)n2)C1` (mixture of isomers) [Example 5-84, 2-ethoxy-2-oxoethyl (3S,4R and 3R,4S)-3-{4-carbamoyl-3-[(4-fluorophenyl)amino]-1H-pyrazol-1-yl}-4-cyanopiperidine-1-carboxylate] are 8.22 and 6.73.
